Source: the NIST ThermoML archive (doi:10.1016/j.jct.2005.07.019)

Assay: mn = molality of the nth substance listed, in mol/kg
Settings: 350 kPa, Liquid, Extra sensitive DSC

NC(CO)C(=O)O (centres undefined) [(.+-.)-serine] + O
apparent molar heat capacity [J/K/mol]
Settings	m1 = 0.015	m1 = 0.0308	m1 = 0.0509	m1 = 0.0807	m1 = 0.1251	m1 = 0.2505
278.15 K	50	53.4	56.4	56.6	57.8	68
283.15 K	71	74.1	76.7	76.7	77.7	86.3
288.15 K	87	90.3	92.6	92.6	93.2	101
293.15 K	101	103.7	105.7	105.8	106.1	113.1
298.15 K	112	114.5	116.5	116.5	116.7	123
303.15 K	121	123.9	125.8	125.7	125.7	131.4
308.15 K	130	132.2	133.9	133.6	133.4	138.6
313.15 K	137	139.3	140.7	140.4	140.2	144.9
318.15 K	143	145.2	146.5	146.2	145.8	150.2
323.15 K	149	150.3	151.6	151.3	150.9	154.9
328.15 K	154	155	156.2	155.8	155.3	158.9
333.15 K	158	159.4	160.4	159.9	159.3	162.6
338.15 K	162	163.3	164.2	163.6	162.9	165.92
343.15 K	166	166.3	167.2	166.6	165.9	168.74
348.15 K	168	169	170.1	169.5	168.8	171.27
353.15 K	170	171.6	172.5	172.1	171.2	173.56
358.15 K	172	173.7	174.6	174	173.1	175.45
363.15 K	174	175.7	176.6	176.2	175.3	177.16
368.15 K	175	177.9	178.6	178.4	177	178.66
373.15 K	177	179.9	180.5	179.7	178.2	179.8
378.15 K	177	180.9	181.3	180.7	179.3	180.67
383.15 K	177	181.7	182.2	181.5	180.2	181.46
388.15 K	175	182.6	183	182.2	180.9	181.91
393.15 K	173	183.3	183.3	182.8	181.6	182.2
